Experimental data as given in US5432165A, “Methods for the treatment of infection caused by Hepatitis B virus (HBV)” (priority 1992, dated 1995).
Values joined by “and” are separate entries in the source; they are usually repeats but may differ in a detail not shown here. Equal values may be shown once. “Also recorded” adds a separate entry of the source.

Tests used:
[1] = test system: hepatitis B virus (HBV); experiment: Effect of oral FIAU on plasma HBV DNA and HBV DNA polymerase in HIV-infected patients with chronic hepatitis B; format: in vivo, human
Procedure: Effects on hepatitis were evaluated principally by changes in HBV DNA and viral DNA polymerase. Secondary markers were surface antigen and e antigen. The hepatitis tests were done at Baseline and on Days 3, 7, 14, 21 (7 days post-treatment) and 42 (28 days post-treatment).
Of the 13 "tolerance" patients, e.g., non-hepatitis patients, enrolled, all received the study drug and all are included in the safety analysis. […] They had received a single dose of the study drug, and has, therefore, been included in the safety analysis, but excluded from the efficacy analysis. All of the remaining hepatitis patients had sufficient baseline levels of HBV DNA (>20 pg/ml) and viral DNA polymerase (>300 cpm) in their serum to be useful for determining changes associated with FIAU dosing and all completed the full two weeks of dosing. Therefore, the remaining six hepatitis patients were included in both the safety and efficacy analyses.
The results of clinical investigations conducted at submilligram per kilogram daily doses of FIAU are presented below. […]

[2] = test system: hepatitis B virus; experiment: Oral FIAU in immune-competent patients with chronic hepatitis B: HBV DNA and HBV DNA polymerase; format: in vivo, human; details: for Number HBeAg-negative at latest follow-up: 6 patients with 1 month follow-up
Procedure: To assess the antiviral activity of FIAU against hepatitis B virus, up to 24 patients with chronic hepatitis B will be treated with oral FIAU in doses of 0.05, 0.10, 0.25 or 0.50 mg/kg-day in three divided doses daily for four weeks. Six patients, of which only three can be previous interferon failures, will be initially dosed at 0.10 mg/kg-day. Depending on tolerance and efficacy, the next six patients will be entered at 0.05 or 0.25 mg/kg-day.
This study is an open and uncontrolled evaluation of oral FIAU in the treatment of chronic hepatitis B. Up to four dose cohorts of six patients each will be sequentially studied starting at 0.10 mg/kg-day. Patients will take the medication three times per day for four weeks. Depending on efficacy and tolerance, the next dose cohort will be either 0.05 or 0.25 mg/kg-day.
Patients who meet the eligibility criteria will start on therapy, generally as outpatients one to two weeks after the in-hospital evaluation. Up to four doses will be sequentially evaluated. The initial six patients will receive 0.10 mg/kg-day for four weeks.
If tolerance is adequate at 0.10 mg/kg-day, six patients will receive 0.25 mg/kg-day for four weeks. The final six patients will receive 0.50 mg/kg-day for four weeks if needed for better efficacy and if tolerance has been adequate at the lower doses.
The FIAU will be administered by mouth in three equally divided doses daily. FIAU is provided as a 1 mg/ml syrup. Patients will be instructed on how to measure and self-administer the FIAU solution using oral dosing syringes. Dosing compliance will be monitored by measuring the residual FIAU solution returned at the weekly outpatient visit.
Activity of FIAU against hepatitis B virus will be assessed by monitoring levels of HBV DNA. An inhibition of HBV DNA activity of at least about 50% by the fourth week of treatment will be considered significant antiviral activity. The dose levels of FIAU will be compared based upon the degree of inhibition of serum levels of HBV DNA.

[3] = 0.1 mg/kg-day, two patients with HBV DNA under 1000 pg/ml
[4] = 0.5 mg/kg-day, four patients with entry HBV DNA <1000 pg/ml
[5] = 0.1 mpk, Day 1 (initial level), individual patients 1A-6A
[6] = 0.1 mpk, Day 3, individual patients 1A-6A
[7] = 0.1 mpk, Day 8, individual patients 1A-6A
[8] = 0.1 mpk, Week 2, individual patients 1A-6A
[9] = 0.1 mpk, Week 3, individual patients 1A-6A
[10] = 0.1 mpk, Week 4, individual patients 1A-6A
[11] = 0.1 mpk, Week 5 (after 4-week treatment), individual patients 1A-6A
[12] = 0.25 mpk, Day 1 (initial level), individual patients 1B-6B
[13] = 0.25 mpk, Day 3, individual patients 1B-6B
[14] = 0.25 mpk, Day 8, individual patients 1B-6B
[15] = 0.25 mpk, Week 2, individual patients 1B-6B

For `O=c1[nH]c(=O)n([C@@H]2O[C@H](CO)[C@@H](O)[C@@H]2F)cc1I` [FIAU, 1-(2'-deoxy-2'-fluoro-β-D-arabinofuranosyl)-5-iodouracil], the “average reduction of serum HBV DNA at Day 3 and One Week visits” value [1, 3] was 60%, the “average reduction of serum HBV DNA by end of therapy at two weeks” value [1, 3] was 93% and the “suppression of serum HBV DNA one week post-treatment” value [1, 3] was 86%. For the same compound, the “drop of HBV DNA by the end of therapy” value ([1]; 0.1 mg/kg-day, two patients with baseline over 1000 pg/ml) was ≤ 25%, the “average HBV DNA level, percent of baseline, end of one week of dosing” value [1, 4] was “less than 20%” and the “average HBV DNA level, percent of baseline, end of two week treatment” value [1, 4] was “less than 10%”. The “drop of average serum HBV DNA after the first two days of therapy” value [1, 4] was 61%, the “suppression of average HBV DNA one month post-treatment” value [1, 4] was “over 75%” and the “drop of serum HBV DNA in one week of therapy” value ([1]; 0.5 mg/kg-day, single patient with baseline above 1000 pg/ml) was 83%. For the same compound, the “effect on plasma HBV DNA and viral DNA polymerase levels” value ([1]; 1.0 mg/kg-day) was “rapid, consistent, profound and prolonged effect”, the “surface antigen and e antigen status” value ([1]; 1.0 mg/kg-day) was “remained positive in all patients to date, with one reported seroreversion of e antigen in Patient 401 approximately 23 weeks post-treatment” and the “continuing suppression of HBV DNA polymerase in serum” value ([1]; 1.0 mg/kg-day, five of the six patients) was > 80%. The “clearing of HBV DNA from the plasma” value ([1]; 1.0 mg/kg-day, four weeks after therapy) was “two of these became totally negative; also recorded: Two showed a complete clearing of HBV DNA from the plasma”, the “average decrease of HBV DNA between Baseline (Day 1) and Day 3” value ([1]; 1.0 mg/kg-day, six patients) was “over 70%” and the “reduction in plasma HBV DNA by the end of therapy” value ([1]; 1.0 mg/kg-day, two weeks, five of the six patients) was “more than 90%”. The “mean reduction of HBV DNA serum level from initial levels at Week 4” value (from here on “mean reduction of HBV DNA serum level”) ([2]; 0.05 mpk) was 30%, the “Number HBeAg-negative at latest follow-up” value (from here on “Number HBeAg-negative”) ([2]; 0.05 mpk) was 0 and the “HBV DNA Polymerase (cpm)” value ([2]; 0.05 mpk, Day 1 (initial level), individual patients 1C, 2C) was 1,318 cpm and 3,365 cpm. The “HBV DNA Polymerase (cpm)” value ([2]; 0.05 mpk, Day 3, individual patients 1C, 2C) was 748 cpm and 1,509 cpm, the “HBV DNA Polymerase (cpm)” value ([2]; 0.05 mpk, Day 8, individual patients 1C, 2C) was 348 cpm and 908 cpm and the “Mean % change of HBV DNA at Week 4 of FIAU” value (from here on “Mean % change of HBV DNA”) ([2]; 0.05 mpk, n = 4) was -31%. For the same compound, the “mean reduction of HBV DNA serum level” value ([2]; 0.1 mpk) was 88%, the “Number HBeAg-negative” value ([2]; 0.1 mpk) was 0 and the “HBV DNA” value [2, 5] was 68.1 pg/mL and 306.2 pg/mL and 307.7 pg/mL and 18.1 pg/mL and 71.3 pg/mL and 172.6 pg/mL. The “HBV DNA Polymerase (cpm)” value [2, 5] was 1208 cpm and 3340 cpm and 3,000 cpm and 1,500 cpm and 1,174 cpm, the “HBV DNA” value [2, 6] was 23.2 pg/mL and 110.6 pg/mL and 208.7 pg/mL and 12.3 pg/mL and 27.8 pg/mL and 75.6 pg/mL and the “HBV DNA Polymerase (cpm)” value [2, 6] was 348 cpm and 721 cpm and 1,550 cpm and 440 cpm and 251 cpm and 610 cpm. The “HBV DNA” value [2, 7] was 16.8 pg/mL and 100.1 pg/mL and 178.8 pg/mL and 8.8 pg/mL and 9.7 pg/mL and 27.6 pg/mL, the “HBV DNA Polymerase (cpm)” value [2, 7] was 119 cpm and 550 cpm and 843 cpm and 164 cpm and 145 cpm and 169 cpm and the “HBV DNA” value ([2]; 0.1 mpk, Month 1 (follow-up), individual patients 1A-6A) was 4.3 pg/mL and 4.8 pg/mL and 34.2 pg/mL and 4.4 pg/mL and 18.6 pg/mL and 138.5 pg/mL. For the same compound, the “HBV DNA” value ([2]; 0.1 mpk, Month 2 (follow-up), individual patients 1A-6A) was 13.8 pg/mL and 11.7 pg/mL and 58.4 pg/mL and 5.9 pg/mL and 26.1 pg/mL and 172.9 pg/mL, the “HBV DNA” value [2, 8] was 9.3 pg/mL and 94.5 pg/mL and 223.2 pg/mL and 7.3 pg/mL and 17.9 pg/mL and 25.2 pg/mL and the “HBV DNA Polymerase (cpm)” value [2, 8] was 90 cpm and 507 cpm and 977 cpm and 118 cpm and 136 cpm and 142 cpm. For the same compound, the “HBV DNA” value [2, 9] was 6.4 pg/mL and 42.2 pg/mL and 122.1 pg/mL and 3.2 pg/mL and 9.0 pg/mL and 22.8 pg/mL, the “HBV DNA Polymerase (cpm)” value [2, 9] was 144 cpm and 360 cpm and 303 cpm and 69 cpm and 86 cpm and 148 cpm and the “HBV DNA” value [2, 10] was 0.0 pg/mL and 31.4 pg/mL and 78.3 pg/mL and 2.5 pg/mL and 7.4 pg/mL and 21.8 pg/mL. For the same compound, the “HBV DNA Polymerase (cpm)” value [2, 10] was 93 cpm and 205 cpm and 310 cpm and 74 cpm and 99 cpm and 165 cpm, the “HBV DNA” value [2, 11] was 4.1 pg/mL and 42.4 pg/mL and 76.1 pg/mL and 8.7 pg/mL and 21.9 pg/mL and 67.9 pg/mL and the “HBV DNA Polymerase (cpm)” value [2, 11] was 84 cpm and 368 cpm and 657 cpm and 169 cpm and 127 cpm and 324 cpm. The “Mean % change of HBV DNA” value ([2]; 0.1 mpk, n = 6) was -88%, the “mean reduction of HBV DNA serum level” value ([2]; 0.25 mpk) was 84% and the “patients who "sero-converted" (failed to exhibit hepatitis B surface antigen)” value ([2]; 0.25 mpk) was 2 of 6. For the same compound, the “Number HBeAg-negative” value ([2]; 0.25 mpk) was 2, the “HBV DNA” value [2, 12] was 975.8 pg/mL and 63.9 pg/mL and 799.1 pg/mL and 196.3 pg/mL and 110.3 pg/mL and 141.1 pg/mL and the “HBV DNA Polymerase (cpm)” value [2, 12] was 43,752 cpm and 835 cpm and 10,833 cpm and 2,752 cpm and 2,454 cpm and 7,422 cpm. For the same compound, the “HBV DNA” value [2, 13] was 742.7 pg/mL and 23 pg/mL and 472.3 pg/mL and 103.5 pg/mL and 40.4 pg/mL and 79.9 pg/mL, the “HBV DNA Polymerase (cpm)” value [2, 13] was 7,841 cpm and 182 cpm and 2,115 cpm and 1,302 cpm and 506 cpm and 1,482 cpm and the “HBV DNA” value [2, 14] was 718.9 pg/mL and 17.5 pg/mL and 204.2 pg/mL and 47.1 pg/mL and 15.9 pg/mL and 60.7 pg/mL. For the same compound, the “HBV DNA Polymerase (cpm)” value [2, 14] was 5,129 cpm and 81 cpm and 1,481 cpm and 213 cpm and 131 cpm and 772 cpm, the “HBV DNA” value ([2]; 0.25 mpk, Month 1 (follow-up), individual patients 1B-6B) was 4.9 pg/mL and 23.4 pg/mL and 100.6 pg/mL and 242.5 pg/mL and 2.7 pg/mL and the “HBV DNA” value [2, 15] was 492.9 pg/mL and 8.0 pg/mL and 182.6 pg/mL and 32.4 pg/mL and 9.3 pg/mL and 26.6 pg/mL. The “HBV DNA Polymerase (cpm)” value [2, 15] was 3,395 cpm and 129 cpm and 2,752 cpm and 105 cpm and 45 cpm and 260 cpm, the “HBV DNA Polymerase (cpm)” value ([2]; 0.25 mpk, Week 3, individual patients 1B-3B) was 2,012 cpm and 63 cpm and 1,602 cpm and the “HBV DNA” value ([2]; 0.25 mpk, Week 3, individual patients 1B-6B) was 373.2 pg/mL and 10.6 pg/mL and 68.3 pg/mL and 31.1 pg/mL and 8.3 pg/mL and 44.2 pg/mL. The “HBV DNA Polymerase (cpm)” value ([2]; 0.25 mpk, Week 4, individual patients 1B-3B) was 834 cpm and 42 cpm and 1,076 cpm, the “HBV DNA” value ([2]; 0.25 mpk, Week 4, individual patients 1B-6B) was 237.9 pg/mL and 7.2 pg/mL and 69.6 pg/mL and 34.0 pg/mL and 7.9 pg/mL and 41.7 pg/mL and the “HBV DNA” value ([2]; 0.25 mpk, Week 5 (after 4-week treatment), individual patients 1B-6B) was 376.3 pg/mL and 24.1 pg/mL and 6.4 pg/mL and 89.9 pg/mL and 6.8 pg/mL. The “Mean % change of HBV DNA” value ([2]; 0.25 mpk, n = 6) was -84% and the “reduction of the initial HBV DNA polymerase level” value ([2]; within the first few days, FIG. 20) was 80-90%.
